Reference: PMC11558128 (Advanced Science, 2024)
Changes are numbered by the printed parent chain. Like-named read-outs stand apart in the source and are kept apart here. Positions of bridges follow the written chain, without caps; N, C: chain ends. Residues, ends and D or L forms follow the SMILES beside them.

Key:
rKv4.2 M279A = biological target: T1, rKv4.2 M279A (Rattus norvegicus, UniProt Q63881, M279A); experiment: cell-based; details: mean ± SEM
T1 construct: expressed in transfected cells; host or cells: HEK293T
T1 sequence (Q63881 1-630 M279A): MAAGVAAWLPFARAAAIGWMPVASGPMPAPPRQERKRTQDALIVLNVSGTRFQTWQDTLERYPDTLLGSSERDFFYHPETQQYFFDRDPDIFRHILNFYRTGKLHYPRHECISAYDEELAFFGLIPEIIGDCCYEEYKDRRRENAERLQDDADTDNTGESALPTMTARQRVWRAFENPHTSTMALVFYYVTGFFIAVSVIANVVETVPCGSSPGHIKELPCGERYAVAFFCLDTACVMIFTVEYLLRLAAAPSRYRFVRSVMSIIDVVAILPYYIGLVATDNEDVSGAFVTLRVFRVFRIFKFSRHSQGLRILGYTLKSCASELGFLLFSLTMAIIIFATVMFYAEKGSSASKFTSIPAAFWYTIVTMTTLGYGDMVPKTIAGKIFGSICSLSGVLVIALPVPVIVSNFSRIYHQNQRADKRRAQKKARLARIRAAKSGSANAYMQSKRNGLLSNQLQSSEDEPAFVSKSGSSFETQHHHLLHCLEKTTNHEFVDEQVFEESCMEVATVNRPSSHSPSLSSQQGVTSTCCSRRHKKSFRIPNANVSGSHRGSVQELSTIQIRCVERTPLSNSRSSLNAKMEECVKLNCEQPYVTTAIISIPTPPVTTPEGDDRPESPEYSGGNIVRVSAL

rKv4.2 E283K = biological target: T2, rKv4.2 E283K (Rattus norvegicus, UniProt Q63881, E283K); experiment: cell-based; details: mean ± SEM
T2 construct: expressed in transfected cells; host or cells: HEK293T
T2 sequence (Q63881 1-630 E283K): T1 sequence (Q63881 1-630 M279A) with A279M, E283K

rKv4.2 N282A = biological target: T3, rKv4.2 N282A (Rattus norvegicus, UniProt Q63881, N282A); experiment: cell-based; details: mean ± SEM
T3 construct: expressed in transfected cells; host or cells: HEK293T
T3 sequence (Q63881 1-630 N282A): T1 sequence (Q63881 1-630 M279A) with A279M, N282A

hNav1.7 = biological target: T4, hNav1.7 (Homo sapiens, UniProt Q15858); experiment: cell-based; details: whole-cell patch clamp, mean ± S.E.M., SEM
T4 construct: expressed in transfected cells; host or cells: HEK293T

[1] = tested on: other Kv channels (hKv1.1-1.5, rKv2.1, hKv3.1-3.4, mKv4.1, hKv7.2 and hERG); details: 1 µM toxin; n = 3-4
rKv4.2 D281K = biological target: T5, rKv4.2 D281K (Rattus norvegicus, UniProt Q63881, D281K); experiment: cell-based; details: mean ± SEM
T5 construct: expressed in transfected cells; host or cells: HEK293T
T5 sequence (Q63881 1-630 D281K): T1 sequence (Q63881 1-630 M279A) with A279M, D281K

[2] = HEK293T, hNav1.7 with β1 and β2, held at -90 mV, step to 0 mV, n = 3-7, read-out: IC50 for hNav1.7

T4 sequence (O60939 30-215): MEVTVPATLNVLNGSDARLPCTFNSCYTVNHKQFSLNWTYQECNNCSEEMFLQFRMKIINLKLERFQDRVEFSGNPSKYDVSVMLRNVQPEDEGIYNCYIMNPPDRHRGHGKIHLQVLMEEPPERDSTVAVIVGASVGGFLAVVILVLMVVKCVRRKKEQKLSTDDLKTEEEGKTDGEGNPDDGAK
T4 sequence (Q15858 other isoform, or with tags, fused parts or gaps): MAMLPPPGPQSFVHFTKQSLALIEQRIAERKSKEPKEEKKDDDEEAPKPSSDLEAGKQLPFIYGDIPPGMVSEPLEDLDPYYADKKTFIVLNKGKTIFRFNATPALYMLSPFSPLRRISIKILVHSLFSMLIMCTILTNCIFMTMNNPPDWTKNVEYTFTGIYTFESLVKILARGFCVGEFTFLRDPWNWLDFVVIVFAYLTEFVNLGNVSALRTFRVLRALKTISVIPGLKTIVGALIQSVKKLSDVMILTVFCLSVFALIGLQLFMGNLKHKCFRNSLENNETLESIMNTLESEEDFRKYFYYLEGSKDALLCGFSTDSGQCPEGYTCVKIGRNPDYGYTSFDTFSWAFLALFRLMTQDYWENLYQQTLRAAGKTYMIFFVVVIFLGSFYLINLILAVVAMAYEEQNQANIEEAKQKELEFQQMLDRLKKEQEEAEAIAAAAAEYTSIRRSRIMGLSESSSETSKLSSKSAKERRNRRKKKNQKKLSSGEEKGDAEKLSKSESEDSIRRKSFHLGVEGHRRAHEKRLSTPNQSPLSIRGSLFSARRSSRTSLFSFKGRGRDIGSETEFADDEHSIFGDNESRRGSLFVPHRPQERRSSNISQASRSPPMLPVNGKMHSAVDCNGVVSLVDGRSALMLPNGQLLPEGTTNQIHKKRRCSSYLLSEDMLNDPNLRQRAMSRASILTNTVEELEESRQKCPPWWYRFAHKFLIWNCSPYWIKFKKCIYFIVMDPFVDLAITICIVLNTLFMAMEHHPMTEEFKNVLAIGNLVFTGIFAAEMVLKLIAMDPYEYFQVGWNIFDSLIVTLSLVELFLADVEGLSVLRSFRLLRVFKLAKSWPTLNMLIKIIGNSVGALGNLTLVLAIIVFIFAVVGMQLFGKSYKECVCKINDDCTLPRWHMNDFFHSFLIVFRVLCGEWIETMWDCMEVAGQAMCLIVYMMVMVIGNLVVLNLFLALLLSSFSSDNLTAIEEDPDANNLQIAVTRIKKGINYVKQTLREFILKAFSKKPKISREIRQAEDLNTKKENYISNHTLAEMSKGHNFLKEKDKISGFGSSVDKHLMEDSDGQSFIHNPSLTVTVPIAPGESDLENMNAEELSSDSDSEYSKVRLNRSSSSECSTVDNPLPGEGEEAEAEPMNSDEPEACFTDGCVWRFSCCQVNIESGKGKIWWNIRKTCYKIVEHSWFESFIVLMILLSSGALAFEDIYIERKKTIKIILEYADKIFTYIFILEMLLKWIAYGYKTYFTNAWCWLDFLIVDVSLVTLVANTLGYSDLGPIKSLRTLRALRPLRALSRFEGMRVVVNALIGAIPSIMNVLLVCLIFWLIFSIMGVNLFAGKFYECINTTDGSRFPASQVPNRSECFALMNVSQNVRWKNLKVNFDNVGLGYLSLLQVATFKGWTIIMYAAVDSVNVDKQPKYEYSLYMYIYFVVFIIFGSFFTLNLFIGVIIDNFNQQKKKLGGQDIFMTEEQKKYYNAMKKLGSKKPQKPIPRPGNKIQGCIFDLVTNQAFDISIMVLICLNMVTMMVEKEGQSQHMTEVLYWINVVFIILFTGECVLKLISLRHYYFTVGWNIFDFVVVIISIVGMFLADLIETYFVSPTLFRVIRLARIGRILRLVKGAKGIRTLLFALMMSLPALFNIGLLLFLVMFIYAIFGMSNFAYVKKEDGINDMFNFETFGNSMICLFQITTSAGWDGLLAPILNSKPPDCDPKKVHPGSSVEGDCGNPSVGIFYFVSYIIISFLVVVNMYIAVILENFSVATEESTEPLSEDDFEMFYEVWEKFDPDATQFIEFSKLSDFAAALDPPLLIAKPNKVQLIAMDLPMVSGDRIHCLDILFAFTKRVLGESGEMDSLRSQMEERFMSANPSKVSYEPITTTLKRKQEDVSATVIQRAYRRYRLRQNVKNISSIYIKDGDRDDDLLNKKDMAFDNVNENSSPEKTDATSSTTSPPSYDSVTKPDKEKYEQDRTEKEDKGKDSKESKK
T4 sequence (Q07699 19-218, further chain): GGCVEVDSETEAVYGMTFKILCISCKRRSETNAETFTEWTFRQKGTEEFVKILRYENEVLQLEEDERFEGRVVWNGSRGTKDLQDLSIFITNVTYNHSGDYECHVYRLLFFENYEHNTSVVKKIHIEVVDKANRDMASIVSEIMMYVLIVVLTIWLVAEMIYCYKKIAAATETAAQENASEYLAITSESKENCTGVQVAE

Row | SMILES | IC50 (rKv4.2 M279A) | IC50 (rKv4.2 E283K) | IC50 (rKv4.2 N282A) | IC50 (hNav1.7; native toxin isolated from venom, n = 5, read-out: IC50 against hNav1.7, native HNTX-VIIa) | IC50 (hNav1.7; [2]) | effect on the current traces of other Kv channels [1] | IC50 (rKv4.2 D281K)
1 | CC(C)C[C@@H]1NC(=O)[C@H](Cc2c[nH]c3ccccc23)NC(=O)[C@H](Cc2ccc(O)cc2)NC(=O)[C@H](CCCNC(=N)N)NC(=O)[C@@H](NC(=O)[C@@H](N)CCC(=O)O)CSSC[C@@H]2NC(=O)[C@@H]3CSSC[C@@H](C(=O)N[C@H](C(=O)N[C@@H](Cc4c[nH]c5ccccc45)C(=O)N[C@@H](CC(=O)O)C(=O)N[C@@H](Cc4c[nH]c5ccccc45)C(=O)N[C@H](C(=O)N[C@@H](Cc4ccccc4)C(N)=O)[C@@H](C)O)C(C)C)NC(=O)[C@H](Cc4c[nH]c5ccccc45)NC(=O)CNC(=O)[C@H](Cc4c[nH]cn4)NC(=O)[C@H](CCCCN)NC(=O)[C@@H]4CCCN4C(=O)[C@H](CO)NC(=O)[C@H](CSSC[C@H](NC(=O)[C@H]([C@@H](C)O)NC(=O)CNC1=O)C(=O)N[C@@H](CO)C(=O)N[C@@H](CCCCN)C(=O)N[C@@H]([C@@H](C)O)C(=O)NCC(=O)N[C@@H](CC(=O)O)C(=O)N3)NC(=O)[C@H](CO)NC(=O)[C@H](CC(C)C)NC(=O)[C@H](Cc1c[nH]cn1)NC(=O)[C@H](CO)NC2=O [HNTX-VIIa] (H-ECRYWLGTCSKTGDCCSHLSCSPKHGWCVWDWTF-NH2; disulfide 2-16, 9-21, 15-28) | 42 ± 6 nM | 62 ± 13 nM | 21 ± 1 nM | 50.6 ± 4.6 nM | 80.4 ± 19.6 nM | no obvious or only minimal effect | 33 ± 6 nM
2 | CC[C@H](C)[C@@H]1NC(=O)[C@@H]2CSSC[C@@H]3NC(=O)[C@H](C(C)C)NC(=O)[C@H](CC(C)C)NC(=O)[C@H](CC(N)=O)NC(=O)[C@@H]4CCCN4C(=O)[C@H](CCCNC(=N)N)NC(=O)[C@H](CSSC[C@H](NC(=O)[C@@H](N)CC(=O)O)C(=O)N[C@@H](CC(C)C)C(=O)NCC(=O)N[C@@H](C)C(=O)N[C@@H](Cc4ccccc4)C(=O)N[C@@H](CCCNC(=N)N)C(=O)N[C@@H](CCCCN)C(=O)N2)NC(=O)[C@H](CSSC[C@@H](C(=O)N[C@@H](CCCCN)C(=O)N[C@@H](Cc2ccc(O)cc2)C(=O)N[C@H](C(=O)N[C@@H](Cc2ccccc2)C(N)=O)C(C)C)NC(=O)[C@H](Cc2c[nH]c4ccccc24)NC(=O)[C@H](CCCNC(=N)N)NC(=O)[C@H](Cc2cnc[nH]2)NC(=O)[C@H](CC(C)C)NC(=O)[C@H](CCCNC(=N)N)NC(=O)[C@H](CO)NC3=O)NC(=O)[C@H](CCCCN)NC(=O)[C@H](CC(=O)O)NC(=O)[C@H](CC(N)=O)NC(=O)[C@H](CC(=O)O)NC(=O)[C@@H]2CCCN2C1=O [mGpTx1] (H-DCLGAFRKCIPDNDKCCRPNLVCSRLHRWCKYVF-NH2; disulfide 2-17, 9-23, 16-30) | 16500 ± 9010 nM | 646 ± 135 nM | 17 ± 5 nM | – | 8 ± 1.2 nM | no obvious or only minimal effect | 320 ± 45 nM
